How the values were obtained:
[1] = Solubility of Compound 1 in Kleptose solutions ('top-down' approach); format: physicochemical; details: formic acid 1.65 mg/mL
Description: The Kleptose concentration varied from 30 to 100 mg/mL.

[2] = test system: BaF3 cells expressing hCRBN, hCRBN and JAK2 wt, or hCRBN and JAK2-V617F; experiment: Combination studies with JAK2 inhibitors in engineered BaF3 cells, CellTitre-Glo after 3 days; format: cell-based; details: IL3 dependent BaF3 lines
Description: (§1) Everolimus was included as a control. The cell viability was then measured by CellTitre-Glo® after 3 days.

[3] = test system: IL3 independent JAK2 V617F BaF3 cells; experiment: as above; format: cell-based; details: compared to the IL3 dependent lines
Description: as §1

In the case of `O=C1CCC(N2Cc3cc(CNC(=O)C(F)(F)c4ccc(Cl)cc4)ccc3C2=O)C(=O)N1` (centres unmarked) [Compound 1, 2-(4-chlorophenyl)-N-((2-(2,6-dioxopiperidin-3-yl)-1-oxoisoindolin-5-yl)methyl)-2,2-difluoroacetamide], the “Assay at t = 0” value ([1]; Kleptose 30 mg/mL) is reported as 0.114 mg/mL, the “Assay at t = 4 wks without Compound 1 crystal at 25° C.” value ([1]; Kleptose 30 mg/mL) is reported as 0.036 mg/mL and the “Assay at t = 9 days with Compound 1 crystal at 25° C.” value (from here on “Assay at t = 9 days”) ([1]; Kleptose 30 mg/mL) is reported as 0.036 mg/mL. For the same molecule, the “Assay at t = 0” value ([1]; Kleptose 60 mg/mL) was 0.115 mg/mL, the “Assay at t = 4 wks without Compound 1 crystal at 25° C.” value ([1]; Kleptose 60 mg/mL) was 0.114 mg/mL and the “Assay at t = 9 days” value ([1]; Kleptose 60 mg/mL) was 0.065 mg/mL. The “Assay at t = 0” value ([1]; Kleptose 70 mg/mL) was 0.115 mg/mL, the “Assay at t = 4 wks without Compound 1 crystal at 25° C.” value ([1]; Kleptose 70 mg/mL) was 0.114 mg/mL and the “Assay at t = 9 days” value ([1]; Kleptose 70 mg/mL) was 0.077 mg/mL. For the same molecule, the “Assay at t = 0” value ([1]; Kleptose 80 mg/mL) was 0.116 mg/mL, the “Assay at t = 4 wks without Compound 1 crystal at 25° C.” value ([1]; Kleptose 80 mg/mL) was 0.114 mg/mL and the “Assay at t = 9 days” value ([1]; Kleptose 80 mg/mL) was 0.103 mg/mL. For the same molecule, the “Assay at t = 0” value ([1]; Kleptose 90 mg/mL) was 0.116 mg/mL, the “Assay at t = 4 wks without Compound 1 crystal at 25° C.” value ([1]; Kleptose 90 mg/mL) was 0.115 mg/mL and the “Assay at t = 9 days” value ([1]; Kleptose 90 mg/mL) was 0.114 mg/mL. For the same molecule, the “Assay at t = 0” value ([1]; Kleptose 100 mg/mL) was 0.117 mg/mL, the “Assay at t = 4 wks without Compound 1 crystal at 25° C.” value ([1]; Kleptose 100 mg/mL) was 0.115 mg/mL and the “Assay at t = 9 days” value ([1]; Kleptose 100 mg/mL) was 0.117 mg/mL. The “difference in single agent effect on cell viability between cell lines” value [2] was “no difference” and the single agent sensitivity [3] was “more sensitive”.

— patent US20190030018A1 (Celgene Corporation, priority 2017, published 2019)
